In patent US5516797A, “Immunosuppressive compounds” (Vertex Pharmaceuticals, Incorporated, priority 1994, dated 1996):

How the values were obtained:
[1] = system: human peripheral blood lymphocytes; assay: Human PBL + OKT3 proliferation (Table 5, assay 1); format: cell-based; settings: Lymphocyte, [3H]TdR incorporation, estimated
Procedure: 1) Assay similar to Yoshimura, N. et al., Transplantation 47:356-359 (1989). Assay uses fresh human peripheral blood lymphocytes isolated by Ficoll-Hypaque density centrifugation, stimulated bythe OKT3 antibody (anti-CD3) which stimulates via interaction with CD3. Stimulation is measured by incorporation of radioactive thymidine [(^3 H)TdR] into proliferating cells, with an uninhibited control signal of 48,000-75,000 cpm. IC50 values are estimated from inhibitions of proliferation observed at various drug concentrations.

[2] = system: T-cell clone stimulated with antibody to TCR and CD2; assay: T-Cell Hybridoma + TCR/CD2 proliferation (Table 5, assay 2); format: cell-based; settings: [3H]TdR incorporation, estimated
Procedure: 2) Assay similar to above, but using T-cell clone stimulated with antibody to the T-cell receptor (TCR) and antibody to CD2. Stimulation is measured by incorporation of radioactive thymidine [(^3 H)TdR] into proliferating cells, with an uninhibited control signal of 23,000 cpm. IC50 values are estimated from inhibitions of proliferation observed at various drug concentrations.

T-cell hybridoma = assay: Apoptosis: activation-induced (anti-CD3) cell death in T-cell hybridoma (Table 5, assay 3); format: cell-based; settings: for Apoptosis (activation-induced cell death): at 1 μg/ml
Excerpt: 3) Assay according to Shi, Y. et al., Nature 339:625-626 (1989). The assay uses a T-cell hybridoma similar to that described. The assay measures activation-induced (anti-CD3) cell death (evaluated by counting viable cells after staining as described) in a T-cell hybridoma that mimics the effect known to occur in immature thymocytes.

CTLL cells = assay: CTLL Proliferation + IL-2 (Table 5, assay 4); format: cell-based, murine; settings: for IC50: Mus musculus, CTLL, exogenous IL-2, [3H]TdR incorporation
Procedure: 4) Assay according to DuMont, F. et al., J. Immunol. 144:251-258 (1990). The assay measures the stimulation of CTLL cells in response to IL-2. Proliferation is measured by incorpoation of (^3 H)TdR. […] In this assay, exogenous IL-2 is provided to overcome this block.
Fresh peripheral blood lymphocytes (PBLs) from LeukoPak cells or whole blood from random normal blood donors (tested HIV-negative and hepatitis negative) are isolated and separated by density centrifugation over Histopaque 1077 (Sigma Chemical Co., St. Louis, Mo.). The murine CTLL cytotoxic T cell line and the human Jurkat T cell line are from ATCC (CTLL-2 ATCC TIB214, JURKAT CLONE E6-1 ATCC TIBl52). The human allogeneic B cell lines used for activation of the fresh PBLs are EBV-transformed lymphocytes from normal healthy adult donors with two completely different HLAhaplotypes. All cell lines were routinely tested for the presence of Mycolasma contamination using the GibcoMycotect test kit and are Mycolasma-free. Culture medium consksts of RPMI 1640 (Gibco, Grand Island, N.Y.) containing penicillin (50 U/ml) and streptomycin (50 μg/ml), L-glutamine 2 mM, 2 mercaptoethanol (5×10^-5), 10% heat-inactivated FCS and 10 mM HEPES.

IL-2 production = settings: in vitro; cited from earlier work
mixed lymphocyte culture = settings: in vitro; cited from earlier work
cytotoxic T-cell = settings: in vitro; cited from earlier work
binding protein (FKBP) = settings: cited from earlier work
PPIase = settings: cited from earlier work
CTLLs = settings: cited from earlier work

SMILES	IC50 [1]	IC50 [2]	activity in activation-induced cell death assay (in words) (T-cell hybridoma)	Apoptosis (activation-induced cell death) (T-cell hybridoma)	IC50 (CTLL cells)	inhibition of IL-2 production, concentration relative to cyclosporin A (IL-2 production)	inhibition of mixed lymphocyte culture response, concentration relative to cyclosporin A (mixed lymphocyte culture)	inhibition of cytotoxic T-cell generation, concentration relative to cyclosporin A (cytotoxic T-cell)	binding to FKBP (binding protein (FKBP))	inhibition of PPIase activity (PPIase)	IL-2 dependent proliferation of the CTLLs (CTLLs)	activity in CTLL / IL-2 assay (in words) (CTLL cells)
C=CC[C@@H]1/C=C(\C)C[C@H](C)C[C@H](OC)[C@H]2O[C@@](O)(C(=O)C(=O)N3CCCC[C@H]3C(=O)O[C@H](/C(C)=C/[C@@H]3CC[C@@H](O)[C@H](OC)C3)[C@H](C)[C@@H](O)CC1=O)[C@H](C)C[C@@H]2OC [FK-506]	< 1 µg/mL	< 1 µg/mL	inhibit this cell death	Blocks	> 1 µg/mL	100 times lower concentration than cyclosporin A	100 times lower concentration than cyclosporin A	100 times lower concentration than cyclosporin A	binds to a binding protein (FKBP) distinct from cyclophilin	inhibits PPIase activity	do not	
CO[C@H]1C[C@@H]2CC[C@@H](C)[C@@](O)(O2)C(=O)C(=O)N2CCCC[C@H]2C(=O)O[C@H]([C@H](C)C[C@@H]2CC[C@@H](O)[C@H](OC)C2)CC(=O)[C@H](C)/C=C(\C)[C@@H](O)[C@@H](OC)C(=O)[C@H](C)C[C@H](C)/C=C/C=C/C=C/1C [Rapamycin]	< 1 µg/mL	< 1 µg/mL	inactive	Inactive	~0.01 µg/mL						inhibits IL-2 dependent proliferation of the CTLLs	active
